In ChEMBL document CHEMBL3400015, “Tertiary amides of Salinomycin: A new group of antibacterial agents against Bacillus anthracis and methicillin-resistant Staphylococcus epidermidis” (Bioorg Med Chem Lett, 2015):
Values after ≈ are worked out from the molar mass of the structure shown.

Assays:
[1] = system: Staphylococcus epidermidis; assay: Bactericidal activity against methicillin-resistant Staphylococcus epidermidis isolate 458/11 after 24 hrs; format: functional; settings: isolate 458/11, 24 h, read-out: MBC99.9
[2] = system: Staphylococcus epidermidis; assay: Bactericidal activity against methicillin-resistant Staphylococcus epidermidis isolate 404/10 after 24 hrs; format: functional; settings: isolate 404/10, 24 h, read-out: MBC99.9
[3] = system: Staphylococcus epidermidis; assay: Antimicrobial activity against Staphylococcus epidermidis ATCC 35984 after 18 hrs by twofold serial broth dilution method; format: functional; settings: ATCC 35984, 18 h
[4] = system: Bacillus anthracis; assay: Antimicrobial activity against Bacillus anthracis 34F2 after 18 hrs by twofold serial broth dilution method; format: functional; settings: 34F2, 18 h
[5] = system: Staphylococcus epidermidis; assay: Antimicrobial activity against methicillin-resistant Staphylococcus epidermidis isolate 424/10 after 18 hrs by twofold serial broth dilution method; format: functional; settings: isolate 424/10, 18 h
[6] = system: Staphylococcus aureus; assay: Bactericidal activity against Staphylococcus aureus ATCC 25923 after 24 hrs; format: functional; settings: ATCC 25923, 24 h, read-out: MBC99.9
[7] = system: Staphylococcus epidermidis; assay: Antimicrobial activity against methicillin-resistant Staphylococcus epidermidis isolate 470/11 after 18 hrs by twofold serial broth dilution method; format: functional; settings: isolate 470/11, 18 h
[8] = system: Staphylococcus epidermidis; assay: Bactericidal activity against methicillin-resistant Staphylococcus epidermidis isolate 460/11 after 24 hrs; format: functional; settings: isolate 460/11, 24 h, read-out: MBC99.9
[9] = system: Staphylococcus epidermidis; assay: Antimicrobial activity against methicillin-resistant Staphylococcus epidermidis isolate 458/11 after 18 hrs by twofold serial broth dilution method; format: functional; settings: isolate 458/11, 18 h
[10] = system: Staphylococcus epidermidis; assay: Bactericidal activity against methicillin-resistant Staphylococcus epidermidis isolate 422/10 after 24 hrs; format: functional; settings: isolate 422/10, 24 h, read-out: MBC99.9
[11] = system: Staphylococcus epidermidis; assay: Bactericidal activity against methicillin-resistant Staphylococcus epidermidis isolate 469/11 after 24 hrs; format: functional; settings: isolate 469/11, 24 h, read-out: MBC99.9
[12] = system: Staphylococcus aureus; assay: Bactericidal activity against Staphylococcus aureus NCTC 4163 after 24 hrs; format: functional; settings: NCTC 4163, 24 h, read-out: MBC99.9
[13] = system: Pseudomonas aeruginosa; assay: Antimicrobial activity against Pseudomonas aeruginosa ATCC 15442 after 18 hrs by twofold serial broth dilution method; format: functional; settings: ATCC 15442, 18 h
[14] = system: Staphylococcus epidermidis; assay: Bactericidal activity against Staphylococcus epidermidis ATCC 35984 after 24 hrs; format: functional; settings: ATCC 35984, 24 h, read-out: MBC99.9
[15] = system: Bacillus subtilis; assay: Genotoxicity in rec-positive Bacillus subtilis H17 at 2 ug/9 mm disc after 24 hrs by disc diffusion method; format: toxicity, organism-based
[16] = system: Staphylococcus epidermidis; assay: Antimicrobial activity against methicillin-resistant Staphylococcus epidermidis isolate 422/10 after 18 hrs by twofold serial broth dilution method; format: functional; settings: isolate 422/10, 18 h
[17] = system: Escherichia coli; assay: Antimicrobial activity against Escherichia coli ATCC 25922 after 18 hrs by twofold serial broth dilution method; format: functional; settings: ATCC 25922, 18 h
[18] = system: Staphylococcus epidermidis; assay: Antimicrobial activity against Staphylococcus epidermidis ATCC 12228 after 18 hrs by twofold serial broth dilution method; format: functional; settings: ATCC 12228, 18 h
[19] = system: Staphylococcus aureus; assay: Antimicrobial activity against Staphylococcus aureus NCTC 4163 after 18 hrs by twofold serial broth dilution method; format: functional; settings: NCTC 4163, 18 h
[20] = system: Escherichia coli; assay: Antimicrobial activity against Escherichia coli NCTC 8196 after 18 hrs by twofold serial broth dilution method; format: functional; settings: NCTC 8196, 18 h
[21] = system: Staphylococcus aureus; assay: Bactericidal activity against Staphylococcus aureus […] after 24 hrs; format: functional; settings: read-out: MBC99.9
[22] = system: Staphylococcus epidermidis; assay: Bactericidal activity against methicillin-resistant Staphylococcus epidermidis isolate 470/11 after 24 hrs; format: functional; settings: isolate 470/11, 24 h, read-out: MBC99.9
[23] = system: Staphylococcus epidermidis; assay: Antimicrobial activity against methicillin-resistant Staphylococcus epidermidis isolate 454/11 after 18 hrs by twofold serial broth dilution method; format: functional; settings: isolate 454/11, 18 h
[24] = system: Staphylococcus epidermidis; assay: Bactericidal activity against methicillin-resistant Staphylococcus epidermidis isolate 454/11 after 24 hrs; format: functional; settings: isolate 454/11, 24 h, read-out: MBC99.9
[25] = system: Escherichia coli; assay: Bactericidal activity against Escherichia coli ATCC 10538 after 24 hrs; format: functional; settings: ATCC 10538, 24 h, read-out: MBC99.9
[26] = system: Staphylococcus epidermidis; assay: Antimicrobial activity against methicillin-resistant Staphylococcus epidermidis isolate 409/10 after 18 hrs by twofold serial broth dilution method; format: functional; settings: isolate 409/10, 18 h
[27] = system: Staphylococcus aureus; assay: Antimicrobial activity against Staphylococcus aureus ATCC 6538 after 18 hrs by twofold serial broth dilution method; format: functional; settings: ATCC 6538, 18 h
[28] = system: Pseudomonas aeruginosa; assay: Bactericidal activity against Pseudomonas aeruginosa ATCC 27853 after 24 hrs; format: functional; settings: ATCC 27853, 24 h, read-out: MBC99.9
[29] = system: Pseudomonas aeruginosa; assay: Antimicrobial activity against Pseudomonas aeruginosa ATCC 27853 after 18 hrs by twofold serial broth dilution method; format: functional; settings: ATCC 27853, 18 h
[30] = system: Staphylococcus epidermidis; assay: Bactericidal activity against methicillin-resistant Staphylococcus epidermidis isolate 457/11 after 24 hrs; format: functional; settings: isolate 457/11, 24 h, read-out: MBC99.9
[31] = system: Pseudomonas aeruginosa; assay: Antimicrobial activity against Pseudomonas aeruginosa NCTC 6749 after 18 hrs by twofold serial broth dilution method; format: functional; settings: NCTC 6749, 18 h
[32] = system: Staphylococcus epidermidis; assay: Antimicrobial activity against methicillin-resistant Staphylococcus epidermidis isolate 404/10 after 18 hrs by twofold serial broth dilution method; format: functional; settings: isolate 404/10, 18 h
[33] = system: Pseudomonas aeruginosa; assay: Bactericidal activity against Pseudomonas aeruginosa ATCC 15442 after 24 hrs; format: functional; settings: ATCC 15442, 24 h, read-out: MBC99.9
[34] = system: Staphylococcus aureus; assay: Antimicrobial activity against Staphylococcus aureus ATCC 25923 after 18 hrs by twofold serial broth dilution method; format: functional; settings: ATCC 25923, 18 h
[35] = system: Staphylococcus epidermidis; assay: Antimicrobial activity against methicillin-resistant Staphylococcus epidermidis isolate 407/10 after 18 hrs by twofold serial broth dilution method; format: functional; settings: isolate 407/10, 18 h
[36] = system: Bacillus subtilis; assay: Genotoxicity in rec-negative Bacillus subtilis M45 at 2 ug/9 mm disc after 24 hrs by disc diffusion method; format: toxicity, organism-based
[37] = system: Staphylococcus epidermidis; assay: Bactericidal activity against methicillin-resistant Staphylococcus epidermidis isolate 403/10 after 24 hrs; format: functional; settings: isolate 403/10, 24 h, read-out: MBC99.9
[38] = system: Staphylococcus epidermidis; assay: Bactericidal activity against methicillin-resistant Staphylococcus epidermidis isolate 461/11 after 24 hrs; format: functional; settings: isolate 461/11, 24 h, read-out: MBC99.9
[39] = system: Staphylococcus aureus; assay: Antimicrobial activity against Staphylococcus aureus […] after 18 hrs by twofold serial broth dilution method; format: functional
[40] = system: Staphylococcus epidermidis; assay: Antimicrobial activity against methicillin-resistant Staphylococcus epidermidis isolate 469/11 after 18 hrs by twofold serial broth dilution method; format: functional; settings: isolate 469/11, 18 h
[41] = system: Staphylococcus epidermidis; assay: Antimicrobial activity against methicillin-resistant Staphylococcus epidermidis isolate 455/11 after 18 hrs by twofold serial broth dilution method; format: functional; settings: isolate 455/11, 18 h
[42] = system: Staphylococcus epidermidis; assay: Antimicrobial activity against methicillin-resistant Staphylococcus epidermidis isolate 457/11 after 18 hrs by twofold serial broth dilution method; format: functional; settings: isolate 457/11, 18 h
[43] = system: Escherichia coli; assay: Bactericidal activity against Escherichia coli ATCC 25922 after 24 hrs; format: functional; settings: ATCC 25922, 24 h, read-out: MBC99.9
[44] = system: Escherichia coli; assay: Bactericidal activity against Escherichia coli NCTC 8196 after 24 hrs; format: functional; settings: NCTC 8196, 24 h, read-out: MBC99.9

Question: CC[C@@H](C(=O)[C@@H](C)[C@@H](O)[C@H](C)[C@@H]1O[C@@H]([C@@H](CC)C(=O)N(Cc2ccccc2)Cc2ccccc2)CC[C@@H]1C)[C@H]1O[C@]2(C=C[C@@H](O)[C@]3(CC[C@@](C)([C@H]4CC[C@](O)(CC)[C@H](C)O4)O3)O2)[C@H](C)C[C@@H]1C was tested. Which MBC [1] did it give?
Answer: > 256 µg/mL

Question: What about the MBC [2] of the same compound?
Answer: > 256 µg/mL

Question: And the MIC [3]?
Answer: 8 µg/mL (≈ 8.6 µM)

Question: What about the MIC [4] of the same compound?
Answer: 32 µg/mL (≈ 34.4 µM)

Question: What about the MIC [5] of the same compound?
Answer: 16 µg/mL (≈ 17.2 µM)

Question: What about the MBC [6] of the same compound?
Answer: 128 µg/mL (≈ 138 µM)

Question: And the MIC [7]?
Answer: 32 µg/mL (≈ 34.4 µM)

Question: And the MBC [8]?
Answer: > 256 µg/mL

Question: And the MIC [9]?
Answer: 16 µg/mL (≈ 17.2 µM)

Question: What about the MBC [10] of the same compound?
Answer: 256 µg/mL (≈ 275 µM)

Question: What about the MBC [11] of the same compound?
Answer: > 256 µg/mL

Question: And the MBC [12]?
Answer: 256 µg/mL (≈ 275 µM)

Question: And the MIC [13]?
Answer: > 256 µg/mL

Question: What about the MBC [14] of the same compound?
Answer: 128 µg/mL (≈ 138 µM)

Question: And the “diameter of the inhibition zone (DIZ)” value [15]?
Answer: 21 mm

Question: And the MIC [16]?
Answer: 16 µg/mL (≈ 17.2 µM)

Question: What about the MIC [17] of the same compound?
Answer: > 256 µg/mL

Question: What about the MIC [18] of the same compound?
Answer: 16 µg/mL (≈ 17.2 µM)

Question: And the MIC [19]?
Answer: 16 µg/mL (≈ 17.2 µM)

Question: And the MIC [20]?
Answer: > 256 µg/mL

Question: What about the MBC [21] of the same compound?
Answer: > 256 µg/mL

Question: And the MBC [22]?
Answer: > 256 µg/mL

Question: What about the MIC [23] of the same compound?
Answer: 8 µg/mL (≈ 8.6 µM)

Question: What about the MBC [24] of the same compound?
Answer: 128 µg/mL (≈ 138 µM)

Question: What about the MBC [25] of the same compound?
Answer: > 256 µg/mL

Question: What about the MIC [26] of the same compound?
Answer: 16 µg/mL (≈ 17.2 µM)

Question: And the MIC [27]?
Answer: 16 µg/mL (≈ 17.2 µM)

Question: What about the MBC [28] of the same compound?
Answer: > 256 µg/mL

Question: And the MIC [29]?
Answer: > 256 µg/mL

Question: What about the MBC [30] of the same compound?
Answer: 256 µg/mL (≈ 275 µM)

Question: What about the MIC [31] of the same compound?
Answer: > 256 µg/mL

Question: And the MIC [32]?
Answer: 32 µg/mL (≈ 34.4 µM)

Question: What about the MBC [33] of the same compound?
Answer: > 256 µg/mL

Question: And the MIC [34]?
Answer: 8 µg/mL (≈ 8.6 µM)

Question: What about the MIC [35] of the same compound?
Answer: 16 µg/mL (≈ 17.2 µM)

Question: What about the “diameter of the inhibition zone (DIZ)” value [36] of the same compound?
Answer: 20 mm

Question: What about the MBC [37] of the same compound?
Answer: > 256 µg/mL

Question: What about the MBC [38] of the same compound?
Answer: > 256 µg/mL

Question: What about the MIC [39] of the same compound?
Answer: 32 µg/mL (≈ 34.4 µM)

Question: And the MIC [40]?
Answer: 32 µg/mL (≈ 34.4 µM)

Question: What about the MIC [41] of the same compound?
Answer: 32 µg/mL (≈ 34.4 µM)

Question: And the MIC [42]?
Answer: 16 µg/mL (≈ 17.2 µM)

Question: What about the MBC [43] of the same compound?
Answer: > 256 µg/mL

Question: And the MBC [44]?
Answer: > 256 µg/mL
